According to patent US20250276962A1, “CONTRACEPTIVE COMPOUNDS AND METHODS” (Regents of the University of Minnesota, priority 2021, published 2025):
“Also recorded” adds a separate entry of the source. Where two headings read alike, the source gives them in different places.

Key:
human liver fibroblast = type: cell-based
Description: The results were negative.

male Beagle dogs = test: Testis histopathology after 14-day dosing, dog; type: in vivo; conditions: daily doses for 14 days (25 mg/kg/day in FIG. 11)
Protocol: 2 male Beagle dogs and 5 male SD rats were dosed with 25 mg/kg/day for 14 days. On Day 15, animals were euthanized to harvest organs for histopathology. Shown are representative images. See Example 19.

[1] = Single dose PK, cynomolgus macaque; type: in vivo
Protocol: NHP studies: Three young adult male marmosets received a single 5 mg/kg dose of the compound of Example land the compound of 3 sexually mature male cynomolgus macaques received a single dose of 0.5, 1, 5 and 10 mg/kg.

[2] = Repeat dose PK (14 days), dog; type: in vivo; conditions: male, Beagle, plasma, oral, Day 14
Protocol: […]. In this study, AUC0-inf was measured.

[3] = Solubility in saline and 50% carbitol; type: physicochemical
48 potential off-targets = test: Off-target screening, agonist and antagonist activity against 48 potential off-targets; conditions: 10 uM; against 39 of 48 targets (including glucocorticoid and androgen receptors)
[4] = target: acetylcholinesterase (AChE) (Homo sapiens, UniProt P22303); test: Off-target screening, AChE; type: biochemical
acetylcholinesterase (AChE), sequence (P22303 32-614, species assumed): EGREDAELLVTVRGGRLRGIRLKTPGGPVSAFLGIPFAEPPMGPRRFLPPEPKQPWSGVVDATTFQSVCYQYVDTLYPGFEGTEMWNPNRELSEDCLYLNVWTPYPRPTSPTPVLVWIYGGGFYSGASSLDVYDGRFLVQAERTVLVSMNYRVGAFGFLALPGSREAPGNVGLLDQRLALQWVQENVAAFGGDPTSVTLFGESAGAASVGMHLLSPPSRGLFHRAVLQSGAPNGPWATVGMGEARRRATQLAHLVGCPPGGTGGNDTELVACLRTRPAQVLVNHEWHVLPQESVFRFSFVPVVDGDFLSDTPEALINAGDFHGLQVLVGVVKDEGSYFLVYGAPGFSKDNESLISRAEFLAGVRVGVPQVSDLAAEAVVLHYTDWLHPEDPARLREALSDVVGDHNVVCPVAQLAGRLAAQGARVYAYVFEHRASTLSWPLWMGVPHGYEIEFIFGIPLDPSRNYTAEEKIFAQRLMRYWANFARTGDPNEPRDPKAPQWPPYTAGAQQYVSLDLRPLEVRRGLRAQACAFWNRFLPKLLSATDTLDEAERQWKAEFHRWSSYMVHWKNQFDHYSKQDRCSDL

[5] = target: KVLQT(7.1)/mink (cardiac potassium ion channel) (Homo sapiens, UniProt P51787); test: Off-target screening, KVLQT(7.1)/mink; type: cell-based
KVLQT(7.1)/mink (cardiac potassium ion channel), sequence (P51787 whole entry): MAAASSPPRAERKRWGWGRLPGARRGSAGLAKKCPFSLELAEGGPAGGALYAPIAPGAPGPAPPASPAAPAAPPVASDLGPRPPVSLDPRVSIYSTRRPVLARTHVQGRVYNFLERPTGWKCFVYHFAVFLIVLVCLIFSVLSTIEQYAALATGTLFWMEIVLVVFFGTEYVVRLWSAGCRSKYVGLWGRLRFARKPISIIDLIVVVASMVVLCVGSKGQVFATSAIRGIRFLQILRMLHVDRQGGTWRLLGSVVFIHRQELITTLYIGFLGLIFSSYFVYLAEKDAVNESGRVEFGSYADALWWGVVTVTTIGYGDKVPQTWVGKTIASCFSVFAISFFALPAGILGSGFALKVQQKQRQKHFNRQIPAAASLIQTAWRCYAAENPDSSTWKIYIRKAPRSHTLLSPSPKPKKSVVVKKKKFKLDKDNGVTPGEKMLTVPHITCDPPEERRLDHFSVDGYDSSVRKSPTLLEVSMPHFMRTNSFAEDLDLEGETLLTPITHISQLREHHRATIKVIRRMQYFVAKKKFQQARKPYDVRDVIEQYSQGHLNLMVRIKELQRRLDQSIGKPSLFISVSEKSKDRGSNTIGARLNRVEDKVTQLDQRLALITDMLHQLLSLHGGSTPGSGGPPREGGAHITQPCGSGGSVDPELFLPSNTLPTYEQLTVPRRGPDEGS

[6] = target: monoamine oxidase A (MAO-A) (Homo sapiens, UniProt P21397); test: Off-target screening, MAO-A; type: biochemical
monoamine oxidase A (MAO-A), sequence (P21397 whole entry, species assumed): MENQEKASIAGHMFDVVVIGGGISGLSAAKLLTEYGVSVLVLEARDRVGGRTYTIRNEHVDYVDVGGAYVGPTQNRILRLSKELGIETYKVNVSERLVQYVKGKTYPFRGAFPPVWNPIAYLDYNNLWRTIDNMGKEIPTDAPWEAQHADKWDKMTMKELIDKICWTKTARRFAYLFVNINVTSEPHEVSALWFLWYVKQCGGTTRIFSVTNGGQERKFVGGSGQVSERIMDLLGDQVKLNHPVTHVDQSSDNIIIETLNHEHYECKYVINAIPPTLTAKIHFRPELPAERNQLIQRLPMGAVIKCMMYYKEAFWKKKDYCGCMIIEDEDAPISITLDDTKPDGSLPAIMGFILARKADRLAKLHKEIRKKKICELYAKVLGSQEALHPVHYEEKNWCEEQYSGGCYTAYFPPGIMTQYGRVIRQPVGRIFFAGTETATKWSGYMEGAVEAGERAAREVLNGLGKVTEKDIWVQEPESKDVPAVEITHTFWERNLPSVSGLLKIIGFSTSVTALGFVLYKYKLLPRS

[7] = target: cannabinoid receptor 1 (CB1) (Homo sapiens, UniProt P21554); test: Off-target screening, CB1; type: cell-based
cannabinoid receptor 1 (CB1), sequence (P21554 whole entry, species assumed): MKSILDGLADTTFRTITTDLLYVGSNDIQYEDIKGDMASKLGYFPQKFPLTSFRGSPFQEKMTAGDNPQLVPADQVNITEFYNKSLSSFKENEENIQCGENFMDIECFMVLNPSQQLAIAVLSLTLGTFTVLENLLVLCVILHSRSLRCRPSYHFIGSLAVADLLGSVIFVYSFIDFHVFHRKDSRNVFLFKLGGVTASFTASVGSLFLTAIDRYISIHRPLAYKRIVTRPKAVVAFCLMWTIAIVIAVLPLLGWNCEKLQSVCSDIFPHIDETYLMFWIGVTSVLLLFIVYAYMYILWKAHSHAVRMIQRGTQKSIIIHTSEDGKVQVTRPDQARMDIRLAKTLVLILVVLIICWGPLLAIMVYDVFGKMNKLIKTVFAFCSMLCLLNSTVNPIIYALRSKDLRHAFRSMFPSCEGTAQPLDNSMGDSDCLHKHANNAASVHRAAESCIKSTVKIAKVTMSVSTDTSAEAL

[8] = Stability in monkey hepatocytes; type: in vitro ADME; conditions: read-out: Half-life (T1/2) Hepatocytes (Phase I and Phase II metabolism) (converted)
[9] = Stability in rat hepatocytes; type: in vitro ADME; conditions: read-out: Half-life (T1/2) Hepatocytes (Phase I and Phase II metabolism) (converted)
[10] = Stability in dog hepatocytes; type: in vitro ADME; conditions: read-out: Half-life (T1/2) Hepatocytes (Phase I and Phase II metabolism)
[11] = Stability in monkey liver microsomes; type: in vitro ADME; conditions: read-out: Half-life (T1/2) Liver microsomes (Phase I metabolism) (converted)
[12] = Stability in rat liver microsomes; type: in vitro ADME; conditions: read-out: Half-life (T1/2) Liver microsomes (Phase I metabolism)
male cynomolgus macaques = conditions: cynomolgus monkey, in vivo
[13] = not given; remark: listed apart in the source
in vitro = conditions: human hepatocytes
[14] = Single dose toxicity, rat; conditions: Sprague-Dawley, in vivo, Maximum tolerated dose (MTD), Sprague-Dawley rats, highest dose level tested
[15] = Single dose toxicity, dog; conditions: Beagle, in vivo, Maximum tolerated dose (MTD), Beagle dogs, highest dose level tested
[16] = Single dose toxicity, mouse; conditions: male, CD-1, mouse, in vivo, Maximum tolerated dose (MTD), male CD-1 mice, highest dose level tested
male CD-1 mice = test: Mouse studies with epididymal sperm count as readout; conditions: 10 mg/kg/day for 4 weeks

In the case of `Cc1ccc(C2=CC(C)(C)Oc3ccc(-c4ccc(-c5ccc(C(=O)[O-])cc5)[nH]4)cc32)cc1.[Na+]` [Example 1, Sodium 4-(5-(2,2-dimethyl-4-(p-tolyl)-2H-chromen-6-yl)-1H-pyrrol-2-yl)benzoate], the “Human liver (lung) fibroblast assay result” value (human liver fibroblast) is reported as “negative”, the “Human liver (lung) fibroblast assay result” value (human liver fibroblast; human) is reported as “The compound of Example 1 showed no cytopathic effects in HepG2 and human” and the Testis histopathology (male Beagle dogs) is reported as “degeneration of the germinal epithelium; also recorded: visible in all evaluated tubuli seminiferi contorti; also recorded: impairs the germinal epithelium”. For the same compound, the AUC(0-inf) ([1]; Cyno 1 mg/kg) was 33,394 h * ng * mL^−1, the AUC(0-inf) ([1]; Cyno 5 mg/kg) was 175,202 h * ng * mL^−1 and the AUC(0-inf) ([1]; Cyno 10 mg/kg) was 293,423 h * ng * mL^−1. For the same compound, the AUC(0-inf) ([1]; male, cynomolgus monkey, plasma, Cyno 0.5 mg/kg, read-out: AUC0-inf) was 23.4 µg·h/mL, the AUC(0-inf) ([2]; Dog 25 mg/kg/day) was 752 µg·h/mL and the AUC(0-inf) ([2]; Dog 100 mg/kg/day) was 14100 µg·h/mL. For the same compound, the solubility ([3]; 50% carbitol [2-(2-ethoxyethoxy)ethanol], aqueous with cosolvent or surfactant or cyclodextrin, in 50% carbitol [2-(2-ethoxyethoxy)ethanol, read-out: Solubility) was over 100 mg/mL, the solubility ([3]; saline, saline or isotonic, in saline, read-out: Solubility) was at most 100 mg/mL and the solubility ([3]; saline, saline or isotonic, saline, read-out: Solubility (saline)) was 2 mg/mL. The “Agonist or antagonist activity against off-targets” value (48 potential off-targets) was “Example 1 had agonist or antagonist activity of <10% against 39 of them (including”, the IC50 [4] was over 30 µM and the inhibition at 10 µM ([4]; 10 μM) was 10.2%. The inhibition at 10 µM [5] was 14.9%, the IC50 [6] was 24.6 µM and the inhibition at 10 µM ([6]; 10 μM) was 45.8%. For the same compound, the IC50 [7] was 1.8 µM, the inhibition at 10 µM ([7]; 10 μM) was 90.5% and the half-life [8] was 3.2 h. For the same compound, the half-life [9] was 7.9 h, the half-life [10] was over 10 h and the half-life [11] was 23.1 h. The half-life [12] was over 23.1 h, the “Repeat dose observations (behaviour, body weight, CBC, clinical chemistry)” value (male cynomolgus macaques) was “behaved normally and had no substantial changes in body weight, CBC parameters or clinical chemistry parameters” and the “Half-life (T1/2) Hepatocytes (Phase I and Phase II metabolism)” value (human) was 8.7 h. For the same compound, the “In vitro Clint (μL/min/10^6 cells)” value (human hepatocytes) was 2.65 μL/min/10^6 cells, the “In vitro T1/2” value (human hepatocytes) was 8.706 h and the “Half-life (T1/2) Hepatocytes (Phase I and Phase II metabolism)” value ([13]; mouse) was 4.8 h. For the same compound, the “In vitro Clint (μL/min/10^6 cells)” value ([13]; mouse hepatocytes) was 4.79 μL/min/10^6 cells, the “In vitro T1/2” value ([13]; mouse hepatocytes) was 4.826 h and the “HepG2 cytotoxicity assay result” value (HepG2) was “negative”. The “HepG2 cytotoxicity assay result” value (HepG2; human) was “The compound of Example 1 showed no cytopathic effects in HepG2 and human”, the CLint scaled (in vitro) was 6.75 mL/min/kg and the MTD [14] was 750 mg/kg. The MTD [15] was over 500 mg/kg, the MTD [16] was over 1000 mg/kg and the “Effect on sperm counts and recovery” value (male CD-1 mice; 2 weeks recovery, 10 mg/kg/day) was “Sperm counts started to increase; also recorded: reversibly reduces sperm counts”. The Epididymal sperm counts (male CD-1 mice; 24 h after last dose) was 0.51±0.27 ×10^7 and the “Reduction of epididymal sperm counts” value (male CD-1 mice; 24 h after last dose) was 90%.
